Columns and labels:
[1] = biological target: T1, AChE (EC 3.1.1.7) from electric eel (Electrophorus electricus, UniProt O42275); experiment: biochemical; settings: for IC50: AChE from electric eel, mean ± SEM of three experiments; for Selectivity index (SI) = BuChE IC50/AChE IC50: eqBuChE IC50 / eeAChE IC50
T1 construct: purchased Sigma-Aldrich C3389
Description: (§1) AChE (EC 3.1.1.7, Type VI-S, from electric eel, C3389; from human, C1682) and BuChE (EC 3.1.1.8, from equine serum, C0663; from human, B4186), 5,5'-dithiobis (2-nitrobenzoic acid) (DTNB, D218200), acetylthiocholine iodide (ATC, A5751), and butyrylthiocholine iodide (BTC, B3253) were obtained from Sigma-Aldrich (St. Louis, MO).
(§2) The inhibitory effects of the synthesised compounds in this paper were evaluated according to our previously reported method. […] ATC/BTC iodide solution (0.075 M) was prepared in deionised water. […] The assay buffer was prepared as follows: potassium dihydrogen phosphate (1.36 g, 10 mmol) was dissolved in 100 ml of water. The pH of the solution was then adjusted to 8.0 ± 0.1 with KOH. Stock solutions of the test samples were dissolved in ethanol to give a final concentration of 10^−4 M when diluted to the final volume of 3.32 ml. For each compound, a dilution series of at least five different concentrations (normally 10^−5–10^−9 M) were prepared.
(§3) For measurement, a cuvette containing 3.0 ml of phosphate buffer, 100 µL of AChE or BuChE, 100 µL of DTNB, and 100 µL of the test compound solution were added in sequence. The reaction was initiated after adding 20 µL of ATC or BTC, and the solution was mixed immediately. […] For the reference value, 100 µL of water replaced the test compound solution. For the blank control, additionally 100 µL of water replaced the enzyme solution. The measurement for each concentration was assayed in triplicate. GraphPad Prism 5 was used for data processing. The inhibition curve was fitted by plotting percentage enzyme activity (100% for the reference) versus logarithm of test compound concentration. The IC50 values were calculated according to the curve, and the data were shown in mean ± SEM.
(§4) The inhibitory effects on ChEs of all the target compounds were determined according to Ellman’s method. AChE from electrophorus electricus (eeAChE) and BuChE from equine serum (eqBuChE) were used in the assays.

[2] = biological target: T2, BuChE (EC 3.1.1.8) from horse serum (Equus caballus, UniProt P81908); experiment: biochemical; assay type: biochemical; settings: for IC50: BuChE from horse serum, mean ± SEM of three experiments; for selective index (selectivity on BuChE): selectivity on BuChE over AChE (eeAChE, eqBuChE)
T2 construct: purchased Sigma-Aldrich C0663; host or cells: equine serum
T2 sequence (P81908 whole entry): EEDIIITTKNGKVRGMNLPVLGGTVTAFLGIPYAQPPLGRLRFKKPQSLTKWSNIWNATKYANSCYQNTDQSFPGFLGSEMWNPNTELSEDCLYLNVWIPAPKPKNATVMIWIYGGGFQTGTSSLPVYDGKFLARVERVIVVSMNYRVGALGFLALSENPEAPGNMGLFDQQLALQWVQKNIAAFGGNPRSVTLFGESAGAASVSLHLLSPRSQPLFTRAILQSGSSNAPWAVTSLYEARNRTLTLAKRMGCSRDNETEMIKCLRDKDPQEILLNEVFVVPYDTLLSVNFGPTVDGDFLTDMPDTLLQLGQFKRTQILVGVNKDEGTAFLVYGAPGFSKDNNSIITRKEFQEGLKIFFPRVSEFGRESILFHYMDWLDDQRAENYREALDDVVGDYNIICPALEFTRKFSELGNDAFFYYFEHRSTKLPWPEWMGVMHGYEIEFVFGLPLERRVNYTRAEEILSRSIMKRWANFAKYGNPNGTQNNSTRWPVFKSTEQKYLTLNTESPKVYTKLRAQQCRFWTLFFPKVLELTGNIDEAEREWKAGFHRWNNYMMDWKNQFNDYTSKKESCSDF
Description: as §1, §2, §3, §4

T1 sequence (O42275 24-633): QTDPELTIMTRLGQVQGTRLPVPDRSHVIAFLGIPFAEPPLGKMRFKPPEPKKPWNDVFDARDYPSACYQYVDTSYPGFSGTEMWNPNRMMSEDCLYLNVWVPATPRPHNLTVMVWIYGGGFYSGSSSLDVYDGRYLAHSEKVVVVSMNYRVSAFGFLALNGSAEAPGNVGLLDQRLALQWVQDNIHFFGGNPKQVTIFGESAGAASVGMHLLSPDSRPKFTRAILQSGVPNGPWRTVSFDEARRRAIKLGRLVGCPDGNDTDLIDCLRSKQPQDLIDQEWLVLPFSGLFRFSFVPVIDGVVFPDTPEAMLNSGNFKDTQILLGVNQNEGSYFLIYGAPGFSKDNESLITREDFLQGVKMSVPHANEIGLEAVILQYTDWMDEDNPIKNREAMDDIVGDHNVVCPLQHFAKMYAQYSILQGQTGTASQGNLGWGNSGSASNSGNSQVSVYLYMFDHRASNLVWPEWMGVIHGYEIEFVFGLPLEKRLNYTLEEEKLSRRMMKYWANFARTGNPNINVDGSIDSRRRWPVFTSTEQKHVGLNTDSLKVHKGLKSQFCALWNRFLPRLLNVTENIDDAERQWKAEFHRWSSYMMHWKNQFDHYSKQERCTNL

Structure (SMILES) | IC50 [1] [nM] | Selectivity index (SI) = BuChE IC50/AChE IC50 [1] | IC50 [2] [nM] | selective index (selectivity on BuChE) [2]
O=C(/C=C/c1ccccc1)NCCNc1c2c(nc3ccccc13)CCCC2 [Compound 9] | 328 ± 122 | 0.2 | 69.1 ± 27.3 | 
O=C(/C=C/c1ccccc1)NCCCNc1c2c(nc3ccccc13)CCCC2 [Compound 10] | 100 ± 5.2 | 0.03 | 3.5 ± 0.4 | 28.7
O=C(C=Cc1ccccc1)NCCCCNc1c2c(nc3ccccc13)CCCC2 [Compound 11, N-(4-((1,2,3,4-tetrahydroacridin-9-yl)amino)butyl)cinnamamide] | 209 ± 76 | 0.01 | 2.9 ± 0.4 | 71.17
O=C(C=Cc1ccccc1)NCCCCCCNc1c2c(nc3ccccc13)CCCC2 [Compound 12, N-(6-((1,2,3,4-tetrahydroacridin-9-yl)amino)hexyl)cinnamamide] | 26.5 ± 10.7 | 1.3 | 34.4 ± 16.6 | 
O=C(/C=C/c1ccccc1)NCCCCCCCCNc1c2c(nc3ccccc13)CCCC2 [Compound 13] | 22.8 ± 9.2 | 0.3 | 7.8 ± 4.7 | 
Cc1ccccc1/C=C/C(=O)NCCCCCCNc1c2c(nc3ccccc13)CCCC2 [Compound 14, (E)-N-(6-((1,2,3,4-tetrahydroacridin-9-yl)amino)hexyl)-3-(o-tolyl)acrylamide] | 36 ± 12.3 | 0.2 | 6 ± 1.5 | 
Cc1cccc(/C=C/C(=O)NCCCCCCNc2c3c(nc4ccccc24)CCCC3)c1 [Compound 15, (E)-N-(6-((1,2,3,4-tetrahydroacridin-9-yl)amino)hexyl)-3-(m-tolyl)acrylamide] | 53.1 ± 6.9 | 0.7 | 37.3 ± 7.2 | 
Cc1ccc(/C=C/C(=O)NCCCCCCNc2c3c(nc4ccccc24)CCCC3)cc1 [Compound 16, (E)-N-(6-((1,2,3,4-tetrahydroacridin-9-yl)amino)hexyl)-3-(p-tolyl)acrylamide] | 22 ± 3.7 | 2.5 | 54.4 ± 11.7 | 
O=C(/C=C/c1ccccc1[N+](=O)[O-])NCCCCCCNc1c2c(nc3ccccc13)CCCC2 [Compound 17, (E)-3-(2-nitrophenyl)-N-(6-((1,2,3,4-tetrahydroacridin-9-yl)amino)hexyl)acrylamide] | 17.5 ± 3.7 | 0.2 | 3.6 ± 0.3 | 
O=C(/C=C/c1cccc([N+](=O)[O-])c1)NCCCCCCNc1c2c(nc3ccccc13)CCCC2 [Compound 18, (E)-3-(3-nitrophenyl)-N-(6-((1,2,3,4-tetrahydroacridin-9-yl)amino)hexyl)acrylamide] | 3.6 ± 0.5 | 1.9 | 6.8 ± 0.6 | 
O=C(/C=C/c1ccc(Cl)c([N+](=O)[O-])c1)NCCCCCCNc1c2c(nc3ccccc13)CCCC2 [Compound 20, (E)-3-(4-chloro-3-nitrophenyl)-N-(6-((1,2,3,4-tetrahydroacridin-9-yl)amino)hexyl)acrylamide] | 6.2 ± 2 | 1.8 | 11.1 ± 2.2 | 
O=C(/C=C/c1ccccc1C(F)(F)F)NCCCCCCNc1c2c(nc3ccccc13)CCCC2 [Compound 21, (E)-N-(6-((1,2,3,4-tetrahydroacridin-9-yl)amino)hexyl)-3–(2-(trifluoromethyl)phenyl)acrylamide] | 41.7 ± 8.5 | 0.04 | 2.4 ± 0.6 | 
O=C(/C=C/c1cccc(C(F)(F)F)c1)NCCCCCCNc1c2c(nc3ccccc13)CCCC2 [Compound 22, (E)-N-(6-((1,2,3,4-tetrahydroacridin-9-yl)amino)hexyl)-3–(3-(trifluoromethyl)phenyl)acrylamide] | 61.3 ± 16.7 | 1.3 | 81.1 ± 15.7 | 
O=C(/C=C/c1ccc(C(F)(F)F)cc1)NCCCCCCNc1c2c(nc3ccccc13)CCCC2 [Compound 23, (E)-N-(6-((1,2,3,4-tetrahydroacridin-9-yl)amino)hexyl)-3–(4-(trifluoromethyl)phenyl)acrylamide] | 8.1 ± 0.3 | 2.0 | 16.4 ± 1.8 | 
O=C(/C=C/c1ccc(F)cc1)NCCCCCCNc1c2c(nc3ccccc13)CCCC2 [Compound 24, (E)-3-(4-fluorophenyl)-N-(6-((1,2,3,4-tetrahydroacridin-9-yl)amino)hexyl)acrylamide] | 15.4 ± 3.3 | 4.3 | 65.9 ± 21.4 | 
O=C(/C=C/c1ccccc1Cl)NCCCCCCNc1c2c(nc3ccccc13)CCCC2 [Compound 25, (E)-3-(2-chlorophenyl)-N-(6-((1,2,3,4-tetrahydroacridin-9-yl)amino)hexyl)acrylamide] | 14.2 ± 3.2 | 0.6 | 8.7 ± 2.7 | 
O=C(/C=C/c1cccc(Cl)c1)NCCCCCCNc1c2c(nc3ccccc13)CCCC2 [Compound 26, (E)-3-(3-chlorophenyl)-N-(6-((1,2,3,4-tetrahydroacridin-9-yl)amino)hexyl)acrylamide] | 16.2 ± 6.5 | 0.6 | 9.2 ± 2.5 | 
O=C(/C=C/c1ccc(Br)cc1)NCCCCCCNc1c2c(nc3ccccc13)CCCC2 [Compound 28, (E)-3-(4-bromophenyl)-N-(6-((1,2,3,4-tetrahydroacridin-9-yl)amino)hexyl)acrylamide] | 19.1 ± 2 | 1.6 | 29.9 ± 1.8 | 
N#Cc1cccc(/C=C/C(=O)NCCCCCCNc2c3c(nc4ccccc24)CCCC3)c1 [Compound 29] | 5.1 ± 0.8 | 13.4 | 68.5 ± 13.6 | 
COc1ccc(/C=C/C(=O)NCCCCCCNc2c3c(nc4ccccc24)CCCC3)c(OC)c1OC [Compound 31, (E)-N-(6-((1,2,3,4-tetrahydroacridin-9-yl)amino)hexyl)-3–(2,3,4-trimethoxyphenyl)acrylamide] | 24.1 ± 8.1 | 0.3 | 8.1 ± 2 | 
COc1cc(/C=C/C(=O)NCCCCCCNc2c3c(nc4ccccc24)CCCC3)cc(OC)c1OC [Compound 32, (E)-N-(6-((1,2,3,4-tetrahydroacridin-9-yl)amino)hexyl)-3–(3,4,5-trimethoxyphenyl)acrylamide] | 6.4 ± 2.2 | 0.5 | 3.4 ± 0.4 | 
O=C(/C=C/c1cccc(O)c1)NCCCCCCNc1c2c(nc3ccccc13)CCCC2 [Compound 33, (E)-3-(3-hydroxyphenyl)-N-(6-((1,2,3,4-tetrahydroacridin-9-yl)amino)hexyl)acrylamide] | 6.4 ± 2.1 | 3.9 | 25.1 ± 6.5 | 
O=C(/C=C/c1ccc(O)cc1)NCCCCCCNc1c2c(nc3ccccc13)CCCC2 [Compound 34, (E)-3-(4-hydroxyphenyl)-N-(6-((1,2,3,4-tetrahydroacridin-9-yl)amino)hexyl)acrylamide] | 2.2 ± 0.3 | 19.8 | 43.5 ± 9.3 | 
COc1cc(/C=C/C(=O)NCCCCCCNc2c3c(nc4ccccc24)CCCC3)ccc1OCc1ccccc1 [Compound 36] | 86.3 ± 30 | 0.3 | 29.8 ± 7.3 | 
COc1cc(/C=C/C(=O)NCCCCCCNc2c3c(nc4ccccc24)CCCC3)ccc1OCc1ccc(Cl)cc1 [Compound 37] | 104 ± 26.4 |  | 22.6 ± 7.1 | 
COc1cc(/C=C/C(=O)NCCCCCCNc2c3c(nc4ccccc24)CCCC3)ccc1OCc1ccc(C)cc1 [Compound 38] | 128 ± 13.3 | 0.5 | 58.4 ± 7.5 | 
